Series [1] deals with proteinase K (Parengyodontium album, UniProt P06873). Nature of the series: Protease stability assay, proteinase K. It is filed as in vitro ADME, fungal.
The nature of series [2]: Circular dichroism spectroscopy, percent helicity. In kind it is physicochemical. Particulars: CD θ220, 10 mM phosphate buffer pH 7.4, 50 μM peptide.
The target in series [3] is pepsin (Sus scrofa, UniProt P00791). Nature of the series: Protease stability assay, pepsin. In kind it is in vitro ADME, porcine. Particulars: acidic pH.
Sequence of pepsin (P00791 60-385): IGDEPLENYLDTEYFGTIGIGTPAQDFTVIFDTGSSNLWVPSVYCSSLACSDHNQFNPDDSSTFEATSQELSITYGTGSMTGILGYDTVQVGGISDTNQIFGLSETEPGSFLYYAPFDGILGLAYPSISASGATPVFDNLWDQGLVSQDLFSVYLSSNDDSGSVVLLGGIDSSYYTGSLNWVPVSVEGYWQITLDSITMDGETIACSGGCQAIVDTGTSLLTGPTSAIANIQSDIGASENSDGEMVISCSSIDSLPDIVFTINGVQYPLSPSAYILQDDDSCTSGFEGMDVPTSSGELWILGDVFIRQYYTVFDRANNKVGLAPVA

From publication PMC9257625 (RSC Chemical Biology, 2022) come the findings set out here.

Positions of bridges follow the written chain, without caps; N, C: chain ends. Non-standard residues stand in square brackets, D forms with d. Residues, ends and D or L forms follow the SMILES beside them. S5 = C=CCCC[C@](C)(N)C(=O)O

Sequence of proteinase K (P06873 106-384): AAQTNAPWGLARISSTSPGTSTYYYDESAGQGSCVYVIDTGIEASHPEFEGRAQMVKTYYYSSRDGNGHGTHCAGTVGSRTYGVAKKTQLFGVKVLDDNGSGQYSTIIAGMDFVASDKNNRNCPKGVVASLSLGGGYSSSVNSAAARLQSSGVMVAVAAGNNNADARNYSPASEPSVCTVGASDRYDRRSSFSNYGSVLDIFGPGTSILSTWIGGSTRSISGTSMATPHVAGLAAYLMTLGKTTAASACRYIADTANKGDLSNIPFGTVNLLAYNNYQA

`CC(=O)N[C@@H](CC(C)C)C(=O)N[C@H](C(=O)N[C@@H](Cc1ccccc1)C(=O)N[C@H]1CCCn2cc(nn2)-c2cccc(c2)-c2cn(nn2)CCC[C@@H](C(=O)N[C@@H](CO)C(N)=O)NC(=O)[C@H](CC(C)C)NC(=O)[C@H](CCC(N)=O)NC(=O)[C@H](C)NC(=O)[C@H](Cc2c[nH]c3ccccc23)NC(=O)[C@H](Cc2ccc(O)cc2)NC(=O)[C@H](CCC(=O)O)NC1=O)[C@@H](C)O` [Peptide 4a]: the “Cleavage by / resistance to proteinase K (in words)” value in series [1] is recorded as “partially vulnerable to cleavage”. Further, the Percent helicity in series [2] turned out to be 27%. Also, the “Cleavage by pepsin (in words)” value in series [3] is reported as “completely cleaved”.

Regarding `CC(=O)N[C@@H](CC(C)C)C(=O)N[C@H](C(=O)N[C@@H](Cc1ccccc1)C(=O)N[C@@]1(C)CCCC=CCCC[C@@](C)(C(=O)N[C@@H](CCC(N)=O)C(=O)N[C@@H](CC(C)C)C(=O)N[C@H](C(=O)N[C@@H](CO)C(N)=O)[C@@H](C)O)NC(=O)[C@H](Cc2c[nH]c3ccccc23)NC(=O)[C@H](Cc2ccc(O)cc2)NC(=O)[C@H](CCC(=O)O)NC1=O)[C@@H](C)O` [Peptide 2a] (Ac-LTF[S5]EYW[S5]QLTS-NH2; staple 4-8), in series [2], the Percent helicity was about 60%.
